The results in this text go back to ChEMBL document CHEMBL5113460, “Discovery of dual inhibitors of topoisomerase I and Cyclooxygenase-2 for colon cancer therapy” (Eur J Med Chem, 2022).

Activity calls are given as the source filed them. The rule behind the calls is not given here.

Data set [1] concerns HT-29. Briefly: Antitumor activity against human HT-29 cells assessed as inhibition of cell proliferation incubated for 72 hrs by MTT assay. The class given is functional, cell-based. The note with it: HT-29, 72 h.
Another data set deals with SW480. Briefly: Antitumor activity against human SW480 cells assessed as inhibition of cell proliferation incubated for 72 hrs by MTT assay. The conditions noted are these: SW480, 72 h. The class given is functional, cell-based.
In data set [2] the test system is HT-29. Briefly: Antitumor activity against human HT-29 cells xenografted in BALB/c mouse assessed as inhibition of tumor microvessel density by measuring CD31-index at 30 mg/kg, ip bid for 14 days by immunohistochemical analysis. The conditions noted are these: time 14 day. It is filed as functional.
Data set [3] deals with T1, DNA topoisomerase 1 (Homo sapiens) (UniProt P11387).
T1 sequence (whole entry): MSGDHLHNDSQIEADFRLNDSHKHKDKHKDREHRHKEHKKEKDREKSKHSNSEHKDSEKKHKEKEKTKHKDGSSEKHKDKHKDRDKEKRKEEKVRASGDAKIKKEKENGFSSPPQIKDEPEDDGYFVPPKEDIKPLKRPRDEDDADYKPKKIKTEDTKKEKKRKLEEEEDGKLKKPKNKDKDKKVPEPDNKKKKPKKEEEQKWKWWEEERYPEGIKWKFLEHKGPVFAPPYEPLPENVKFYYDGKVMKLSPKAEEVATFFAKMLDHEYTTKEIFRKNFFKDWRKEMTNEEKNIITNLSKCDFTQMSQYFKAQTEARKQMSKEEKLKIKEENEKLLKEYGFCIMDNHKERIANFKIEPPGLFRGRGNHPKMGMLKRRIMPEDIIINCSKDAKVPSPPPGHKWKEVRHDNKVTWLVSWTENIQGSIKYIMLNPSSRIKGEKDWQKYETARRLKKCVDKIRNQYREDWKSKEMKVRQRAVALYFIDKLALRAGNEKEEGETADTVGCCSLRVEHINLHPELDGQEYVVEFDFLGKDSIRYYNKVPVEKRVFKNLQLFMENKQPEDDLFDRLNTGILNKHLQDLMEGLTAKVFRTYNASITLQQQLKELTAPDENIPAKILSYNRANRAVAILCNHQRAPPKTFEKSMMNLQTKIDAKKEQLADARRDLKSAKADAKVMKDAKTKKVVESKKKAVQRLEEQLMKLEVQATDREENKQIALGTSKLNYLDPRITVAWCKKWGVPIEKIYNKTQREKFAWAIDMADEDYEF
Briefly: Inhibition of topoisomerase 1 (unknown origin) assessed as relaxation of supercoiled plasmid pBR322 DNA at 10 uM incubated for 45 mins by ethidium bromide staining based agarose gel electrophoresis.

Data set [4] concerns HT-29. Briefly: Antitumor activity against human HT-29 cells xenografted in BALB/c mouse assessed as reduction of tumor weight at 30 mg/kg, ip bid and measured after 14 days. The class given is functional, organism-based. The note with it: time 14.0 day.
For data set [5], the target named is Prostaglandin G/H synthase 2 (Homo sapiens) (UniProt P35354). Kind of data set: Inhibition of COX-2 (unknown origin) at 30 uM.
Data set [6] is described as follows: Water solubility of compound by HPLC analysis. It is filed as physicochemical.
A further data set relates to RKO. Kind of data set: Antitumor activity against human RKO cells assessed as inhibition of cell proliferation incubated for 72 hrs by MTT assay. It is filed as functional, cell-based.
Another data set deals with LoVo. Kind of data set: Antitumor activity against human LoVo cells assessed as inhibition of cell proliferation incubated for 72 hrs by MTT assay. It is filed as functional, cell-based.
Data set [7] has as its system HT-29. Briefly: Antitumor activity against human HT-29 cells xenografted in BALB/c mouse assessed as inhibition of tumor growth at 30 mg/kg, ip bid and measured after 14 days by vernier caliper method. The class given is functional. The conditions noted are these: HT-29, 336 h, time 14 day, read-out: TGI.
Another data set concerns HCT-116. Kind of data set: Antitumor activity against human HCT-116 cells assessed as inhibition of cell proliferation incubated for 72 hrs by MTT assay. It is filed as functional, cell-based. The conditions noted are these: HCT-116, 72 h.

Prostaglandin G/H synthase 2 (Homo sapiens), sequence (P35354 whole entry, looked up): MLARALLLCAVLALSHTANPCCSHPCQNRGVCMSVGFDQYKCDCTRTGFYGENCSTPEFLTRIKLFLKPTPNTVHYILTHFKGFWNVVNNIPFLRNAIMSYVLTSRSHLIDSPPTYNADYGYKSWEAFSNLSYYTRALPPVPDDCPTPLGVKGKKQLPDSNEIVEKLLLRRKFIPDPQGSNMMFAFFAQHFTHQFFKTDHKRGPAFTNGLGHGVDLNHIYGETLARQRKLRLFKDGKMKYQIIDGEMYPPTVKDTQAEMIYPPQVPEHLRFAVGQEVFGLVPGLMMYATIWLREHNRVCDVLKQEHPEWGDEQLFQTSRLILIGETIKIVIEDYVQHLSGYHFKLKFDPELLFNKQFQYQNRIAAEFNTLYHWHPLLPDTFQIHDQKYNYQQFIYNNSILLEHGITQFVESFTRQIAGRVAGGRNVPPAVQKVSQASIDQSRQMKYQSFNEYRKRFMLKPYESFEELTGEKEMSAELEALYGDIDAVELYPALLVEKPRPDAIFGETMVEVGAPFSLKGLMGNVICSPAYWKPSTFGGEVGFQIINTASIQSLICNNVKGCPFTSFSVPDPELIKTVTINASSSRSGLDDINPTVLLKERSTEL

As to `Cc1c(Cl)cccc1Nc1ccccc1C(=O)Nc1ccc(OCCNC(=O)OC(C)(C)C)cc1`, the IC50 in the data set with HT-29 [1] was 1.88 µM; with SW480 it was greater than 30 µM; with RKO it was 0.75 µM; with LoVo, 28.9 µM; in the data set with HCT-116, greater than 30 µM. Further, the Inhibition_index in the data set with HT-29 [2] stood at 11.67. Besides, the results for the inhibition in [3] and in data set [5] were 18.2% and 28%, respectively. Moreover, the result in the data set on HT-29 [4] was Active. The solubility in [6] was less than 1 µg/mL. For the same compound, the inhibition in vivo at 30 mg/kg in the data set with HT-29 [7] worked out at 37.9%.
